# Like-named read-outs stand apart in the source and are kept apart here.
# What was measured:
# [1] = test system: A375 (human malanoma); test: MTT proliferation inhibition, A375 cells; format: cell-based; details: Homo sapiens, read-out: Inhibitory rate (%)
# Excerpt: (§1) The Silica Gel Column Chromatography and Countercurrent Chromatography preparation techniques were used to obtain Friedelin monomer extracted from EZR2002 for the sake of evaluating its anti-tumor activity further. The purity of this monomer determined by GC-MS analysis was 90.5%.
# (§2) A375 (human malanoma), L929 (mouse lung epithelial tumor), Hela (human cervical tumor) and THP-1 (human macrophage tumor) cell lines were used for active filtration test in this experiment. Among these cell lines, A375, L929 and Hela were adherent cells while THP-1 was a kind of suspended cell.
# (§3) All cells were maintained in the RPMI-1640 culture medium supplemented with 10% fetal calf serum, penicillin (100 U/mL), streptomycin (100 μg/mL) and 0.2% NaHCO3. These supplements were dissolved in deionized water and 0.22 μm filtration membrane was used for filter sterilization. The fetal calf serum was inactivated 30 min at 56° C. prior to an experiment. Cells were cultured in a humidified incubator of 5% CO2 at 37° C.
# (§4) A375, L929 and Hela cells in logarithmic growth phases were seeded at a cell density of approximately 5×10^4 cells/mL in 96 pore plates (100 μL/well). Furthermore, THP-1 cell was seeded at a cell density of approximately 1×10^5 cells/mL because it was smaller than others. Samples were added in suspended cells after culturing 4 h and in adherent cells after culturing 12 h. Friedelin was dissolved in DMSO in advance and then in the culture medium with the ultrasonic treatment, where the final concentration of the solvent in the culture medium was <0.1% (v/v). Sample was added for 7.5, 15, 30, 60, 120, 240, 480 and 960 μmol/L. Each level had four parallel pores and a negative control. The cells were incubated for 24 and 48 h and then 15 μL/well MTT solvent (5 mg/mL) was added.
# (§5) The cells were incubated for 48 h, followed by centrifugation at 1500 rpm for 5 min. The supernatant was removed and 150 μL/well DMSO was added, followed by micro-vibrator shocking for 10 min and crystal dissolving completely. The absorbance (OD value) was measured by enzyme-labeled meter at 492 nm. Furthermore, the inhibitory rate of cell proliferation and the IC50 value of friedelin were counted by using Bliss method.
# (§6) The de-methyl-cantharidin was taken as the positive control and the inhibitory rate of A375, L929 and Hela cells were measured by adding de-methyl-cantharidin (120 μmol/L) for 24 and 48 h (Table 8). Furthermore, the corresponding data of Friedelin were counted.
# [2] = test system: L929 (mouse lung epithelial tumor); test: MTT proliferation inhibition, L929 cells; format: cell-based; details: Mus musculus, read-out: Inhibitory rate (%)
# Excerpt: as §1, §2, §3, §4, §5, §6
# [3] = test system: Hela (human cervical tumor); test: MTT proliferation inhibition, Hela cells; format: cell-based; details: Homo sapiens, HeLa, read-out: Inhibitory rate (%)
# Excerpt: as §1, §2, §3, §4, §5, §6
# [4] = test system: P388 mouse leukemia cells; test: Growth inhibition of P388 cells (MTT reduction method, 48 h); format: cell-based
# Description: […] growth […] The effect time was 48 h and 72 h, respectively.
# (§7) 10^−5, 10^−6 and 10^−7 mol/L were determined as three critical levels. Invalid, weak effect and strong effect were determined as three evaluation indices.
# [5] = test system: A549 human lung adenocarcinoma cells; test: Growth inhibition of A549 cells (SRB protein coloring method, 72 h); format: cell-based
# Description: Sulforhodamine B (SRB) protein staining method and microculture tetrozolium (MTT) reduction method were used to measure the growth inhibitory effects of tumor cells by EZR2002 with the test objects of P388 mouse leukemia cells and A549 human lung adenocarcinoma cells, respectively. The effect time was 48 h and 72 h, respectively.
# as §7
# [6] = compounds from bamboo shoot sheath; Sakai 1999; cited from earlier work
smiles,measurement,setting,value
"O=C1OC(=O)C2C3CCC(O3)C12 (centres unmarked) [De-methyl-cantharidin, de-methyl-cantharidin, reference compound]",inhibition at 120 µM,"[1]; A-375, 24 h",38.6%
same,inhibition at 120 µM,"[1]; A-375, 48 h",50.4%
same,inhibition at 120 µM,"[2]; L929, 24 h",40.5%
same,inhibition at 120 µM,"[2]; L929, 48 h",34.4%
same,inhibition at 120 µM,[3]; 24 h,34.1%
same,inhibition at 120 µM,[3]; 48 h,43.7%
CC[C@]1(O)C[C@H]2CN(CCc3c([nH]c4ccccc34)[C@@](C(=O)OC)(c3cc4c(cc3OC)N(C=O)[C@H]3[C@@](O)(C(=O)OC)[C@H](OC(C)=O)[C@]5(CC)C=CCN6CC[C@]43[C@@H]65)C2)C1 [Vincristin],Evaluation,[4],Strong
same,Inhibition rate (%),[4]; sample level 10^−4 mol/L,93.1%
same,Inhibition rate (%),[4]; sample level 10^−5 mol/L,94.3%
same,Inhibition rate (%),[4]; sample level 10^−6 mol/L,94.8%
same,Inhibition rate (%),[4]; sample level 10^−7 mol/L,94.7%
same,Inhibition rate (%),[4]; sample level 10^−8 mol/L,93.2%
same,Evaluation,[5],Weak
same,Inhibition rate (%),[5]; sample level 10^−4 mol/L,71.3%
same,Inhibition rate (%),[5]; sample level 10^−5 mol/L,71.6%
same,Inhibition rate (%),[5]; sample level 10^−6 mol/L,66.5%
same,Inhibition rate (%),[5]; sample level 10^−7 mol/L,44.3%
same,Inhibition rate (%),[5]; sample level 10^−8 mol/L,9.6%
O=C1c2c(O)cc(O)cc2O[C@H](c2ccc(O)c(O)c2)[C@H]1O [taxifolin],anti-oxidative activity relative to that of α-tocopherol,[6],~1%
COc1cc(-c2cc(=O)c3c(O)cc(O)cc3o2)cc(OC)c1O [tricin],anti-oxidative activity relative to that of α-tocopherol,[6],~10%

# Source: US7811997B2, “Composition containing total triterpenoid sapogenins extracted from bamboo, and the preparation method and use thereof” (priority 2002, dated 2010)
